# Data: US9757324B2, “Emu oil in combination with other active ingredients for treating skin imperfections” (priority 2011, dated 2017)
# Assay: Histological examination of skin after topical application
# Format: in vivo, volunteers
# Procedure: A study conducted with Emu Oil and doxycycline was undertaken in volunteers with mild to moderate acne. Sixteen volunteers participated who had mild to moderate acne, and one had severe cystic acne. Within 48 hours of application of the combination, the acne had disappeared. Only the volunteer with severe cystic acne had to apply the combination for five days for the acne to resolve. The efficacy was 100%. […] There are no tropical formulations of doxycycline to compare with. On histological examination, doxycycline was found in the dermis within 15 minutes of topical application.
compound,measurement,value
C[C@H]1c2cccc(O)c2C(=O)C2=C(O)[C@]3(O)C(=O)C(C(N)=O)=C(O)[C@@H](N(C)C)[C@@H]3[C@@H](O)[C@@H]21 [doxycycline],time after which doxycycline was found in the dermis,≤ 15 min
